The assay has as its system recombinant Tat transactivation of HIV-1 5′ LTR-luciferase. The experiment in a line: Transactivation assay with recombinant Tat in HeLa-CD4-LTR-Luc cells. The class given is cell-based. The text has this:
The production of functional recombinant HIV-1 Tat in Escherichia coli is not trivial as the proper folding of Tat is extremely important for activity, and when expressed by itself, Tat agglomerates mostly because of oxidation of the cysteine residues in the cysteine region. Tat can also adhere to different surfaces and anionic polymers via its charged and hydrophobic residues ([21], [22]). We produced and purified recombinant HIV Tat HXB3 (residues 1 to 89) with a 6×His tag in the C-terminus in E. coli. For this, we have partially optimized the arginine codon usage and changed the rare AGA into codon CGT at arginine positions 7, 53, 56, and 87 of Tat (Fig. 1A). […] After Tat purification using nickel affinity chromatography followed by size exclusion filtration, Tat protein size was analyzed by SDS-PAGE followed by Coomassie blue staining (Fig. 1B). The specificity of the bands was confirmed by Western blotting using anti-Tat serum and anti-His antibody (Fig. 1B). The purity of Tat was further verified by size exclusion chromatography and high-performance liquid chromatography (HPLC) (Fig. 1C and D). We confirmed the activity of Tat by performing transactivation assays in both HeLa-CD4 cells stably expressing the HIV-1 5′ long terminal repeat (LTR) promoter driving luciferase expression (HeLa-CD4-LTR-Luc cells) ([10]) and the OM10.1 cell line model of HIV-1 latency ([23]) (Fig. 1E and F; see Fig. S2A and S2B in the supplemental material). In HeLa-CD4-LTR-Luc cells, the activity of our purified Tat was similar to the published activity of Tat obtained from the AIDS Reagent Program ([10]). In addition, denatured Tat and Tat mutated in the basic domain (Tat Mut [arginine residues mutated to alanine residues]), used as negative controls, were unable to transactivate the reporter (Fig. S2A).
FIG 1 Purity and activity of the monomeric His-tagged Tat HXB3 and analysis of its direct binding to dCA. […] Statistical significance was determined using one-way ANOVA with post hoc Tukey’s test. ns, not significant; ***, P < 0.0001; *, P < 0.01. […]
On to `C[C@@](Cc1ccc(O)c(O)c1)(NN)C(=O)O.O` [SCM, S-(−)-carbidopamonohydrate, reference compound], for which the “inhibition of recombinant Tat transactivation (luciferase)” value is on record as “no inhibitory activity”.
As for `CN(C)C1CC23CCC4(O2)C(=CCC2(C)C(c5ccc6ccncc6c5)=CCC24)C=C3C(O)C1O` (stereo not drawn) [dCA, didehydro-cortistatin A], the entry is “blocked Tat transcriptional activity in a dose-dependent manner”; as for `Cc1nnc(C(=O)NC(C)(C)c2nc(C(=O)NCc3ccc(F)cc3)c(O)c(=O)n2C)o1` [raltegravir, reference compound], “no inhibitory activity”.

Source of the values: article PMC6368365, “Didehydro-Cortistatin A Inhibits HIV-1 by Specifically Binding to the Unstructured Basic Region of Tat” (mBio, 2019).
